Results on 18 compounds are retold here after patent US12441726B2, “Compounds and uses thereof” (Foghorn Therapeutics Inc., priority 2020, dated 2025).

SMILES strings stand for the structures. Some results are limits rather than exact numbers.

Sequence of BRG-1 (P51532 whole entry): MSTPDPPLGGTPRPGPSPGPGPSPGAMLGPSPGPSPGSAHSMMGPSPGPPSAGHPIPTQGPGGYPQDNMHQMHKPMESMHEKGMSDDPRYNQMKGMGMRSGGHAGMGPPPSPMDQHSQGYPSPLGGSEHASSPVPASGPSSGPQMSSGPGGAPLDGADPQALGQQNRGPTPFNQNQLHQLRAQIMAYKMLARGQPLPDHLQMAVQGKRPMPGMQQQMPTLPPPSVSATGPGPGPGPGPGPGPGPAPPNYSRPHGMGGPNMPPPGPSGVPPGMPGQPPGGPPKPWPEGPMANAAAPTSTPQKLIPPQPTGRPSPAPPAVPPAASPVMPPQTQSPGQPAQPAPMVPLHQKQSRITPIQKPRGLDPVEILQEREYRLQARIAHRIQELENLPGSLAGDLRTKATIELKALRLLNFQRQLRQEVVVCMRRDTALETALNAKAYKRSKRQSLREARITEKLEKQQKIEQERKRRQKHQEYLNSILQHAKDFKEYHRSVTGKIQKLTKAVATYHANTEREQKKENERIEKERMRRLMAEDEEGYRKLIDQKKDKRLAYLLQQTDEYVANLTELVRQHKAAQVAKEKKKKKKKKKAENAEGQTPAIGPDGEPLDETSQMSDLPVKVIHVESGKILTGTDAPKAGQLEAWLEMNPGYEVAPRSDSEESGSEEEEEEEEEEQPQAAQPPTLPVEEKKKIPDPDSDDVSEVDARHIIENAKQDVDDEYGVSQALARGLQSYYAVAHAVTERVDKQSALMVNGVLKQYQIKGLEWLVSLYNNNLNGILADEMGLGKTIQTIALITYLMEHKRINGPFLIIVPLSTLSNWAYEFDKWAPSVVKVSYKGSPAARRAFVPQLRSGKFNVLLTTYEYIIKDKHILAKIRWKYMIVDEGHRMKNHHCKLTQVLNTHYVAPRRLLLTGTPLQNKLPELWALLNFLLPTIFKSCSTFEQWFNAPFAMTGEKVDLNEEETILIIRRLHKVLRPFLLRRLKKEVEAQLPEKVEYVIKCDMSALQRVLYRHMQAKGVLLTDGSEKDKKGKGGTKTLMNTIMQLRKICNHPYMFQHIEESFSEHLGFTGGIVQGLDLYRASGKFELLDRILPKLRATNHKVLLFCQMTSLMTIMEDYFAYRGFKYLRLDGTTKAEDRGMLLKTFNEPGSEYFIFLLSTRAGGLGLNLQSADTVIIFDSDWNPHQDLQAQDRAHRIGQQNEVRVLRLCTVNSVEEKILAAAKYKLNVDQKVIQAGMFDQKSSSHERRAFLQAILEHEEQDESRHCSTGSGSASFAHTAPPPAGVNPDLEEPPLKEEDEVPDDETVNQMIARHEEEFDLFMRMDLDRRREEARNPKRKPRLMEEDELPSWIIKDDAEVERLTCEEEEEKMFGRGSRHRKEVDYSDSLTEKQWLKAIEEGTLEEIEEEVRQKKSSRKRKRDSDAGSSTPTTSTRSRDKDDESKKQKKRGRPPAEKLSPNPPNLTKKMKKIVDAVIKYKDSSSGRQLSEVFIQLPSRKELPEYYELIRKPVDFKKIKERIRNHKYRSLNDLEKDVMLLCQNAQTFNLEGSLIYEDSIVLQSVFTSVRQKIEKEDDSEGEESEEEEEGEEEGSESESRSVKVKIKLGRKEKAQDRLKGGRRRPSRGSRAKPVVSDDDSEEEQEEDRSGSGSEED

For one assay, the target named is BRM (Homo sapiens, UniProt P51531). Description: ATPase catalytic activity assay (ADP-Glo), BRM. Particulars: 30 nM BRM, 400 μM ATP. (In ADP-Glo the light output rises with the ADP produced.)
Sequence of BRM (P51531 whole entry): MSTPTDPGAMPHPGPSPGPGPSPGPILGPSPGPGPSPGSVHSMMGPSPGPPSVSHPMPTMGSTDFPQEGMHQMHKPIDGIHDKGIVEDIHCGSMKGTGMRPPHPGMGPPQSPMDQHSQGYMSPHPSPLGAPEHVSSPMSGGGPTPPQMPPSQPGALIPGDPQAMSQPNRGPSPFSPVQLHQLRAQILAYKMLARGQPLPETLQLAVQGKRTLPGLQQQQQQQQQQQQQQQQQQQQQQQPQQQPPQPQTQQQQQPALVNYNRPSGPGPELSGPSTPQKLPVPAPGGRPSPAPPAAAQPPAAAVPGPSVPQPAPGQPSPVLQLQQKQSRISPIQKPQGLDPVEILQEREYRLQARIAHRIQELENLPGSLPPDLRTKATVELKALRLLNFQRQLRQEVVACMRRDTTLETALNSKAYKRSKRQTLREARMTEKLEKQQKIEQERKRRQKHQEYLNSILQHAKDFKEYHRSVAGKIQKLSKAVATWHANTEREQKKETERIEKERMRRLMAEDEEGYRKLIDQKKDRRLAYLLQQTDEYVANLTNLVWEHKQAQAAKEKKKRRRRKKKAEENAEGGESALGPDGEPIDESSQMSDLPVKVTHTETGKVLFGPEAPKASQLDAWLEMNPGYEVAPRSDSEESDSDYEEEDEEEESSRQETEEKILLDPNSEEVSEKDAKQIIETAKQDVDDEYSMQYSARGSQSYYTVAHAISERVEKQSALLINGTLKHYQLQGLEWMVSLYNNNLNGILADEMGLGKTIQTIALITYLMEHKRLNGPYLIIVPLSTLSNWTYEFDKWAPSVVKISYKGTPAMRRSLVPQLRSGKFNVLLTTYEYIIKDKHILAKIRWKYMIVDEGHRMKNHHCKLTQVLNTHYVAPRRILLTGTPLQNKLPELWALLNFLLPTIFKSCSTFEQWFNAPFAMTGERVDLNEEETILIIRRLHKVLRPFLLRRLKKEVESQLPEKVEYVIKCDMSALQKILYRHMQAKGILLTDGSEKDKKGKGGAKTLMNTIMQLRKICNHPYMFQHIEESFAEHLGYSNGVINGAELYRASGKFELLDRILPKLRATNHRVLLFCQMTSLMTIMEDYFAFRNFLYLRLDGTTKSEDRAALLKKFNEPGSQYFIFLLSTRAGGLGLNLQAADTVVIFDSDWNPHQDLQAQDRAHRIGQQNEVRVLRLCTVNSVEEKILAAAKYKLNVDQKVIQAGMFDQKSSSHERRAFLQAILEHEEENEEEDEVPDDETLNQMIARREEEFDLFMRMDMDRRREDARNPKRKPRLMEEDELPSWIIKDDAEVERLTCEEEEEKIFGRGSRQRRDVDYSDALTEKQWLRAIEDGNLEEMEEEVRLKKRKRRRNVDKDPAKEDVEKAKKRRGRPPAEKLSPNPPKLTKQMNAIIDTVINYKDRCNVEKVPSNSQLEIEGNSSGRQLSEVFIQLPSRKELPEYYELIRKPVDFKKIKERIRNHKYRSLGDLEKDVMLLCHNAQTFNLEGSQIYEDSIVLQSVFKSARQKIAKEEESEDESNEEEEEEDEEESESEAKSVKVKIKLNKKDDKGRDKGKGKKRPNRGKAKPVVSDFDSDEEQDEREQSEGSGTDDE
For `C[C@@]1(C#N)COCc2ccc(C(=O)NCc3cc4nc(N5CCCC5=O)ccc4cn3)cc21` [Compound 471], the “BRM Max % Inhibition” value was 96%.
The same measure, in the same setting: the value for `C[C@@]1(C#N)COCc2ccc(C(=O)NCc3cc4nc(-c5ccccc5OCCO)ccc4cn3)cc21` [Compound 431] was 86%; that for `COC1CN(C(=O)c2cccc(-c3ccc4cnc(CNC(=O)c5ccc6c(c5)[C@](C)(C#N)COC6)cc4n3)c2)C1` [Compound 445] was 96%; that for `COC1(c2ccccc2)CCN(c2ccnc(CNC(=O)c3ccc4c(c3)[C@](C)(C#N)COC4)c2)C1` (stereo partly drawn) [Compound 58] was 92%.
Still for that read-out and setting: the value for `O=C(NCc1cc2nc(-c3cncc(N4CCC4)n3)ccc2cn1)c1cc(F)c2c(c1)[C@](F)(C(F)F)COC2` [Compound 375] was 100%.
Still for that read-out and setting: the value for `C[C@@]1(C#N)COCc2ccc(C(=O)NCc3cc4nc(-c5cccc(N6CCC6)c5)ccc4cn3)cc21` [Compound 126] was 95%; that for `C[C@@]1(C#N)COCc2ccc(C(=O)NCc3cc(SCc4ccccc4)ccn3)cc21` [Compound 52] was 86%.
As for `C[C@@]1(C#N)COCc2ccc(C(=O)NCc3cc4nc(-n5cccn5)ccc4cn3)cc21` [Compound 473], the “BRM Max % Inhibition” value is reported as 96%.
The same measure, in the same setting: the value for `C[C@@]1(C#N)COCc2ccc(C(=O)NCc3cnc4ccc(-c5ccccc5)nc4c3)cc21` [Compound 106] was 80%; that for `C[C@@]1(C#N)COCc2ccc(C(=O)NCc3cc4nc(-c5ccc(C(F)F)nc5)ccc4cn3)cc21` [Compound 478] was 95%; that for `C[C@@]1(F)COCc2ccc(C(=O)NCc3cc4nc(-c5ccnc(C6CC6)n5)cnc4cn3)cc21` [Compound 191] was 97%.
Turning to `C[C@@]1(C#N)COCc2ccc(C(=O)NCc3cc4c(cn3)CCN(c3ccccn3)C4)cc21` [Compound 286], the “BRM Max % Inhibition” value turned out to be 85%.
On to `C[C@@]1(C#N)COCc2ccc(C(=O)NCc3cc(C4CN(c5ccccc5)C4)ccn3)cc21` [Compound 30], for which the “BRM Max % Inhibition” value came out at 92%.
Same read-out and setting: the value for `C[C@H](NC(=O)c1ccc2c(c1)[C@](C)(C#N)COC2)c1cc2nc(-c3ccccc3)ccc2cn1` [Compound 87] was 88%.
The same measure, in the same setting: the value for `COC(=O)N1CCC(C#Cc2ccnc(CNC(=O)c3ccc4c(c3)[C@](C)(C#N)COC4)c2)C1` (stereo partly drawn) [Compound 22] was 70%; that for `C[C@@]1(C#N)COCc2ccc(C(=O)NCc3nccc(C#Cc4ccccc4)c3F)cc21` [Compound 16] was 94%; that for `Cn1c(=O)ccc2ccc(-c3ccc4cnc(CNC(=O)c5ccc6c(c5)[C@](C)(C#N)COC6)cc4n3)nc21` [Compound 180] was 100%.
Take `COCc1cc2c(-c3ccc4cnc(CNC(=O)c5ccc6c(c5)[C@](C)(C#N)COC6)cc4n3)cccc2n1C` [Compound 141]: the “BRM Max % Inhibition” value worked out at 100%.

Staying with this assay, now noted: BRM ATPase: IC50 (uM), 30 nM BRM, 400 μM ATP.
One may read the IC50 as the concentration needed to halve the response being measured. Lower therefore signals greater potency. The compound `C[C@@]1(C#N)COCc2ccc(C(=O)NCc3cc4nc(N5CCCC5=O)ccc4cn3)cc21` [Compound 471] registered an IC50 of 0.1 to 0.5 µM.
On the same count and under the same terms, the value for `C[C@@]1(C#N)COCc2ccc(C(=O)NCc3cc4nc(-c5ccccc5OCCO)ccc4cn3)cc21` [Compound 431] was 0.1 to 0.5 µM; that for `COC1CN(C(=O)c2cccc(-c3ccc4cnc(CNC(=O)c5ccc6c(c5)[C@](C)(C#N)COC6)cc4n3)c2)C1` [Compound 445] was 0.1 to 0.5 µM; that for `COC1(c2ccccc2)CCN(c2ccnc(CNC(=O)c3ccc4c(c3)[C@](C)(C#N)COC4)c2)C1` (stereo partly drawn) [Compound 58] was 0.1 to 0.5 µM.
The same measure, in the same setting: the value for `O=C(NCc1cc2nc(-c3cncc(N4CCC4)n3)ccc2cn1)c1cc(F)c2c(c1)[C@](F)(C(F)F)COC2` [Compound 375] was below 0.1 µM.
Same read-out and setting: the value for `C[C@@]1(C#N)COCc2ccc(C(=O)NCc3cc4nc(-c5cccc(N6CCC6)c5)ccc4cn3)cc21` [Compound 126] was 0.1 to 0.5 µM; that for `C[C@@]1(C#N)COCc2ccc(C(=O)NCc3cc(SCc4ccccc4)ccn3)cc21` [Compound 52] was 0.1 to 0.5 µM.
The compound `C[C@@]1(C#N)COCc2ccc(C(=O)NCc3cc4nc(-n5cccn5)ccc4cn3)cc21` [Compound 473] gave a 50% inhibitory concentration (IC50) of 0.1 to 0.5 µM.
The same measure, in the same setting: the value for `C[C@@]1(C#N)COCc2ccc(C(=O)NCc3cnc4ccc(-c5ccccc5)nc4c3)cc21` [Compound 106] was above 1 µM.
`C[C@@]1(C#N)COCc2ccc(C(=O)NCc3cc4nc(-c5ccc(C(F)F)nc5)ccc4cn3)cc21` [Compound 478]: the IC50 was in the range of 0.1 to 0.5 µM.
On to `C[C@@]1(F)COCc2ccc(C(=O)NCc3cc4nc(-c5ccnc(C6CC6)n5)cnc4cn3)cc21` [Compound 191], for which the IC50 is below 0.1 µM.
As to `C[C@@]1(C#N)COCc2ccc(C(=O)NCc3cc4c(cn3)CCN(c3ccccn3)C4)cc21` [Compound 286], the concentration for half-maximal inhibition (IC50) fell in the range of 0.1 to 0.5 µM.
On to `C[C@@]1(C#N)COCc2ccc(C(=O)NCc3cc(C4CN(c5ccccc5)C4)ccn3)cc21` [Compound 30], for which the IC50 fell in the range of 0.1 to 0.5 µM.
Still for that read-out and setting: the value for `C[C@H](NC(=O)c1ccc2c(c1)[C@](C)(C#N)COC2)c1cc2nc(-c3ccccc3)ccc2cn1` [Compound 87] was 0.5 to 1 µM; that for `COC(=O)N1CCC(C#Cc2ccnc(CNC(=O)c3ccc4c(c3)[C@](C)(C#N)COC4)c2)C1` (stereo partly drawn) [Compound 22] was above 1 µM.
On the same count and under the same terms, the value for `C[C@@]1(C#N)COCc2ccc(C(=O)NCc3nccc(C#Cc4ccccc4)c3F)cc21` [Compound 16] was 0.1 to 0.5 µM; that for `Cn1c(=O)ccc2ccc(-c3ccc4cnc(CNC(=O)c5ccc6c(c5)[C@](C)(C#N)COC6)cc4n3)nc21` [Compound 180] was below 0.1 µM; that for `COCc1cc2c(-c3ccc4cnc(CNC(=O)c5ccc6c(c5)[C@](C)(C#N)COC6)cc4n3)cccc2n1C` [Compound 141] was below 0.1 µM.

A further assay has as its target BRG-1 (Homo sapiens, UniProt P51532). Description: ATPase catalytic activity assay (ADP-Glo), BRG-1.
Conditions: not given
Compound `C[C@@]1(C#N)COCc2ccc(C(=O)NCc3cc4nc(N5CCCC5=O)ccc4cn3)cc21` [Compound 471] registered an IC50 above 1000 nM.
Still for that read-out and setting: the value for `C[C@@]1(C#N)COCc2ccc(C(=O)NCc3cc4nc(-c5ccccc5OCCO)ccc4cn3)cc21` [Compound 431] was 500 to 1000 nM.
Still for that read-out and setting: the value for `COC1CN(C(=O)c2cccc(-c3ccc4cnc(CNC(=O)c5ccc6c(c5)[C@](C)(C#N)COC6)cc4n3)c2)C1` [Compound 445] was 500 to 1000 nM; that for `COC1(c2ccccc2)CCN(c2ccnc(CNC(=O)c3ccc4c(c3)[C@](C)(C#N)COC4)c2)C1` (stereo partly drawn) [Compound 58] was 500 to 1000 nM.
`O=C(NCc1cc2nc(-c3cncc(N4CCC4)n3)ccc2cn1)c1cc(F)c2c(c1)[C@](F)(C(F)F)COC2` [Compound 375] displayed an IC50 below 100 nM.
The same measure, in the same setting: the value for `C[C@@]1(C#N)COCc2ccc(C(=O)NCc3cc4nc(-c5cccc(N6CCC6)c5)ccc4cn3)cc21` [Compound 126] was above 1000 nM.
Take `C[C@@]1(C#N)COCc2ccc(C(=O)NCc3cc(SCc4ccccc4)ccn3)cc21` [Compound 52]: the IC50 is above 1000 nM.
`C[C@@]1(C#N)COCc2ccc(C(=O)NCc3cc4nc(-n5cccn5)ccc4cn3)cc21` [Compound 473] displayed an IC50 above 1000 nM.
On to `C[C@@]1(C#N)COCc2ccc(C(=O)NCc3cnc4ccc(-c5ccccc5)nc4c3)cc21` [Compound 106], for which the IC50 is above 1000 nM.
The same measure, in the same setting: the value for `C[C@@]1(C#N)COCc2ccc(C(=O)NCc3cc4nc(-c5ccc(C(F)F)nc5)ccc4cn3)cc21` [Compound 478] was 500 to 1000 nM; that for `C[C@@]1(F)COCc2ccc(C(=O)NCc3cc4nc(-c5ccnc(C6CC6)n5)cnc4cn3)cc21` [Compound 191] was 500 to 1000 nM; that for `C[C@@]1(C#N)COCc2ccc(C(=O)NCc3cc4c(cn3)CCN(c3ccccn3)C4)cc21` [Compound 286] was above 1000 nM.
The compound `C[C@@]1(C#N)COCc2ccc(C(=O)NCc3cc(C4CN(c5ccccc5)C4)ccn3)cc21` [Compound 30] came in with an IC50 above 1000 nM.
Consider `C[C@H](NC(=O)c1ccc2c(c1)[C@](C)(C#N)COC2)c1cc2nc(-c3ccccc3)ccc2cn1` [Compound 87], for which the IC50 was above 1000 nM.
On the same count and under the same terms, the value for `COC(=O)N1CCC(C#Cc2ccnc(CNC(=O)c3ccc4c(c3)[C@](C)(C#N)COC4)c2)C1` (stereo partly drawn) [Compound 22] was above 1000 nM; that for `C[C@@]1(C#N)COCc2ccc(C(=O)NCc3nccc(C#Cc4ccccc4)c3F)cc21` [Compound 16] was above 1000 nM.
Same read-out and setting: the value for `Cn1c(=O)ccc2ccc(-c3ccc4cnc(CNC(=O)c5ccc6c(c5)[C@](C)(C#N)COC6)cc4n3)nc21` [Compound 180] was 100 to 500 nM; that for `COCc1cc2c(-c3ccc4cnc(CNC(=O)c5ccc6c(c5)[C@](C)(C#N)COC6)cc4n3)cccc2n1C` [Compound 141] was 100 to 500 nM.

The assay is the same for the next values; noted with them: 1 h, read-out: BRG1 Max % Inhibition, ADP-Glo, 30 nM BRG-1, 400 μM ATP.
On to `C[C@@]1(C#N)COCc2ccc(C(=O)NCc3cc4nc(N5CCCC5=O)ccc4cn3)cc21` [Compound 471], for which the Emax was found to be 63%.
Same read-out and setting: the value for `C[C@@]1(C#N)COCc2ccc(C(=O)NCc3cc4nc(-c5ccccc5OCCO)ccc4cn3)cc21` [Compound 431] was 53%; that for `COC1CN(C(=O)c2cccc(-c3ccc4cnc(CNC(=O)c5ccc6c(c5)[C@](C)(C#N)COC6)cc4n3)c2)C1` [Compound 445] was 72%; that for `COC1(c2ccccc2)CCN(c2ccnc(CNC(=O)c3ccc4c(c3)[C@](C)(C#N)COC4)c2)C1` (stereo partly drawn) [Compound 58] was 50%.
Same read-out and setting: the value for `O=C(NCc1cc2nc(-c3cncc(N4CCC4)n3)ccc2cn1)c1cc(F)c2c(c1)[C@](F)(C(F)F)COC2` [Compound 375] was 101%; that for `C[C@@]1(C#N)COCc2ccc(C(=O)NCc3cc4nc(-c5cccc(N6CCC6)c5)ccc4cn3)cc21` [Compound 126] was 51%; that for `C[C@@]1(C#N)COCc2ccc(C(=O)NCc3cc(SCc4ccccc4)ccn3)cc21` [Compound 52] was 34%.
On the same count and under the same terms, the value for `C[C@@]1(C#N)COCc2ccc(C(=O)NCc3cc4nc(-n5cccn5)ccc4cn3)cc21` [Compound 473] was 72%.
Take `C[C@@]1(C#N)COCc2ccc(C(=O)NCc3cnc4ccc(-c5ccccc5)nc4c3)cc21` [Compound 106]: the Emax worked out at 32%.
On the same count and under the same terms, the value for `C[C@@]1(C#N)COCc2ccc(C(=O)NCc3cc4nc(-c5ccc(C(F)F)nc5)ccc4cn3)cc21` [Compound 478] was 63%; that for `C[C@@]1(F)COCc2ccc(C(=O)NCc3cc4nc(-c5ccnc(C6CC6)n5)cnc4cn3)cc21` [Compound 191] was 76%; that for `C[C@@]1(C#N)COCc2ccc(C(=O)NCc3cc4c(cn3)CCN(c3ccccn3)C4)cc21` [Compound 286] was 43%.
For the compound `C[C@@]1(C#N)COCc2ccc(C(=O)NCc3cc(C4CN(c5ccccc5)C4)ccn3)cc21` [Compound 30], the Emax was 35%.
Still for that read-out and setting: the value for `C[C@H](NC(=O)c1ccc2c(c1)[C@](C)(C#N)COC2)c1cc2nc(-c3ccccc3)ccc2cn1` [Compound 87] was 87%; that for `COC(=O)N1CCC(C#Cc2ccnc(CNC(=O)c3ccc4c(c3)[C@](C)(C#N)COC4)c2)C1` (stereo partly drawn) [Compound 22] was 31%; that for `C[C@@]1(C#N)COCc2ccc(C(=O)NCc3nccc(C#Cc4ccccc4)c3F)cc21` [Compound 16] was 51%.
Same read-out and setting: the value for `Cn1c(=O)ccc2ccc(-c3ccc4cnc(CNC(=O)c5ccc6c(c5)[C@](C)(C#N)COC6)cc4n3)nc21` [Compound 180] was 99%; that for `COCc1cc2c(-c3ccc4cnc(CNC(=O)c5ccc6c(c5)[C@](C)(C#N)COC6)cc4n3)cccc2n1C` [Compound 141] was 96%.
